Experiments:
HCT-116 [1] = experiment: Orthotopic HCT-116 mouse xenograft study, tumor volume; type: in vivo, BALB/c nude mice; settings: for tumor volume: day 43, vehicle 1,139 ± 580
Procedure: (§1) This animal study was contracted to CrownBio International R&D Center (Beijing, China) and was conducted under the approval of the Animal Ethics Committee at CrownBio in compliance with institutional and national guidelines. Seven-to eight-week-old female BALB/c nude mice were obtained from HFK Bio-Technology Co., Ltd. (Beijing, China). HCT-116 cells (2 × 10^6) were suspended in 20 μL PBS and then injected into the cecal wall. Treatment began on day 14 after cell inoculation when tumor reached ∼100 mm^3 measured in a satellite group of three mice. Treatment groups include vehicle control [PEG400:pH 10 carbonate buffer (40:60)], CVM-1118 at 20, 50, and 100 mg/kg given orally daily for 28 days, and CVM-1118 at 20 mg/kg given as intravenous injection once every 2 days for 7 times. Tumor volumes were measured at the end of in-life study on day 43. At the end of in vivo study, tumor tissues from selected groups were excised, collected, and subjected to standard immunohistochemical procedures to visualize the effect of CVM-1118 on VM network formation. Briefly, rabbit anti-human CD31 antibody (Abcam) was used as the primary Ab for the staining and the number of channels with CD31+/red blood cell (RBC)+, or CD31−/RBC+ were counted based on five light fields (×200) on the whole section of each sample in each group under microscope. Analysis of difference in tumor volume for drug-treated group against vehicle control group was conducted using one-way ANOVA followed by least significant difference (LSD) test (equal variance tested and confirmed by Brown-Forsythe test). Statistical analysis for VM formation was evaluated using Mann-Whitney test. All data were analyzed using GraphPad Prism 9.5.

Notch4 ICD = experiment: qPCR analysis of Notch4 expression; type: cell-based, human; settings: C8161, 10 nM, 8–72 h
Procedure: (§2) For the qPCR analysis of Nodal and Notch expression, total RNA was isolated from cells using the PerfectPure RNA Cell Isolation kit (5Prime) and then reverse-transcribed using 1 μg RNA, RT master mix cocktail and MMLV reverse transcriptase. qPCR was performed on a 7500 Real-Time PCR System (Life Technologies) using manufacturer recommended protocol. TaqMan gene expression human primer/probe sets (Applied Biosystems) utilized were Nodal (Hs00250630_s1) and Notch4 (Hs00270200_m1). Target gene expression was normalized to appropriate house-keeping genes (e.g., RPLP0 or GAPDH). Data was analyzed using Life Technologies Sequence Detection Software.

Nodal = experiment: qPCR analysis of Nodal expression; type: cell-based, human; settings: C8161, 10 nM, 8–72 h
Procedure: as §2

HCT-116 [2] = experiment: In vivo vasculogenic mimicry (CD31−/RBC+ channels) in orthotopic HCT-116 xenograft; parameters: species or system BALB/c nude mice; settings: 100 mg/kg oral, excised colon tumor tissues, vs vehicle
Procedure: as §1, with “At the end of in vivo study, tumor tissues from selected groups were excised, collected, and subjected to standard immunohistochemical procedures to visualize the effect of CVM-1118 on VM network formation.” left out, “Analysis of difference in tumor volume for drug-treated group against vehicle control group was conducted using one-way ANOVA followed by least significant difference (LSD) test (equal variance tested and confirmed by Brown-Forsythe test).” left out

TRAP1 = target: T1, TRAP1 (Homo sapiens, UniProt Q12931); experiment: In vitro ATPase assay; type: biochemical; settings: data not shown
T1 sequence (Q12931 60-704): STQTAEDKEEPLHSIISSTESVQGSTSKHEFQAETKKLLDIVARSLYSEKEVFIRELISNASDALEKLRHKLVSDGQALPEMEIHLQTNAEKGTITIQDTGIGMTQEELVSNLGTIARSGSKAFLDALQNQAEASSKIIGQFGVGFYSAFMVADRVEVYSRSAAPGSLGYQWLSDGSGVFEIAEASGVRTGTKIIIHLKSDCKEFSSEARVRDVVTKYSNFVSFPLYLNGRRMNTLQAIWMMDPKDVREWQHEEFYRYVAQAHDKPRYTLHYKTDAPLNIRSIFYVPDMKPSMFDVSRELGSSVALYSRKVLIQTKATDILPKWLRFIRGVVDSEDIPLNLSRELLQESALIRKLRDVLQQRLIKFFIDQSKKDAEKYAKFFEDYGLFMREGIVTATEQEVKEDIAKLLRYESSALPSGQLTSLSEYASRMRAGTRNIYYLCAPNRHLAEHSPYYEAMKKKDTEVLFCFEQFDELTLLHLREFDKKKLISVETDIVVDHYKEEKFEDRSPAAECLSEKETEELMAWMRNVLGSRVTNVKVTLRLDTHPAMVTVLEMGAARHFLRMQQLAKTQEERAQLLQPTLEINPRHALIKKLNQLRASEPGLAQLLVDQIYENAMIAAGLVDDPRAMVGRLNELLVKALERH

HCT-116 [3] = experiment: NCI 60 cytotoxicity screening; type: cell-based; settings: Homo sapiens
HCT-15 = experiment: NCI 60 cytotoxicity screening; type: cell-based; settings: Homo sapiens; HCT-15, Colon
SNB-75 = experiment: NCI 60 cytotoxicity screening; type: cell-based; settings: Homo sapiens; SNB-75, CNS
TGFβ1/1 (HIC5) = TGFβ1/1 (HIC5) (Homo sapiens, UniProt O43294); experiment: Surface plasmon resonance (Biacore); type: binding; settings: TGFβ1/1, SPR
Chain of TGFβ1/1 (HIC5) (O43294 whole entry): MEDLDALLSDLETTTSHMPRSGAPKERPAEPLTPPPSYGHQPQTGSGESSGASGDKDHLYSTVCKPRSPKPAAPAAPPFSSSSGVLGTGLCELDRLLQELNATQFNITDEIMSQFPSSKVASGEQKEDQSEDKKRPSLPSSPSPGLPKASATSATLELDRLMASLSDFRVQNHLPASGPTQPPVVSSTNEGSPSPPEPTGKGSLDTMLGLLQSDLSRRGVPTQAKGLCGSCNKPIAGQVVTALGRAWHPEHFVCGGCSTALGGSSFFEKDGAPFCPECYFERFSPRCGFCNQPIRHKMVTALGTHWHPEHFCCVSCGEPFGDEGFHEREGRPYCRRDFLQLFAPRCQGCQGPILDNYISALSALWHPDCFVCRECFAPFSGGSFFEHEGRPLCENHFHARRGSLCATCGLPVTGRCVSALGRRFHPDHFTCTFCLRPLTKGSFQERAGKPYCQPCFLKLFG

EKVX = experiment: NCI 60 cytotoxicity screening; type: cell-based; settings: Homo sapiens, NSCLC
HIF-1α = experiment: Western blot of HIF-1α protein (hypoxia); type: cell-based, human; settings: hypoxia 72 h
Procedure: Changes in the expression HIF-1α protein in SK-MEL28, SK-OV3, MDA-MB-231 and COLO205 cells in response to treatment with CVM-1125 was performed as follows: 5.0 × 10^6 cells were grown under hypoxic conditions (as previously described) for 72 h, with or without 100 nM CVM-1125 in T175 culture flasks, then sub-confluent cultures harvested and whole cell protein lysates prepared and analyzed by Western blot (as above). Thirty micrograms of protein was loaded per lane of the gel for each sample followed by detection of HIF-1α protein on the final blot using a polyclonal rabbit anti- HIF-1α antibody (#3716; Cell Signaling Technologies), secondary antibody plus HRP (NA934V), then ECL. The blots were then stripped and re-probed for β-actin protein as a control (as above).

NCI-H23 = experiment: NCI 60 cytotoxicity screening; type: cell-based; settings: Homo sapiens; NCI-H23, NSCLC
GADD45GIP1 = GADD45GIP1 (Homo sapiens, UniProt Q8TAE8); experiment: Surface plasmon resonance (Biacore); type: binding; settings: GADD45GIP1, SPR
SK-OV-3 = experiment: NCI 60 cytotoxicity screening; type: cell-based; settings: Homo sapiens; SK-OV-3, Ovarian

## COc1ccc2[nH]c(-c3cccc(F)c3)cc(=O)c2c1OP(=O)(O)O [CVM-1118]
HCT-116 [1]; 20 mg/kg i.v. once every 2 days for 7 times
  tumor volume: 670 ± 447 mm^3
HCT-116 [1]; 20 mg/kg i.v. treatment group
  animals found dead prior to the termination of the study: two mice
HCT-116 [1]; 20 mg/kg orally daily for 28 days
  tumor volume: 1,591 ± 747 mm^3
HCT-116 [1]; 50 mg/kg oral treatment group
  animals found dead prior to the termination of the study: One mouse
HCT-116 [1]; 50 mg/kg orally daily for 28 days
  tumor volume: 722 ± 595 mm^3
HCT-116 [1]; 100 mg/kg orally daily for 28 days
  tumor volume: 475 ± 415 mm^3
Notch4 ICD
  expression of Notch4 ICD (mRNA): decreased
Nodal
  expression of Nodal (mRNA): decreased
HCT-116 [2]
  reduction of VM network formation (VM channels): 85%

## COc1ccc2[nH]c(-c3cccc(F)c3)cc(=O)c2c1O [CVM-1125]
TRAP1
  influence on the ATPase activity of TRAP1: no influence
HCT-116 [3]; HCT-116, Colon
  GI50: 33 nM
HCT-116 [3]; HCT-116, refers to Supplementary Table S2
  IC50: 33 nM
HCT-15
  GI50: 35.5 nM
SNB-75
  GI50: 15 nM
TGFβ1/1 (HIC5)
  Association (ka): No dose dependent interaction
  Dissociation (kd): No dose dependent interaction
  KD (kd/ka): No dose dependent interaction
EKVX
  GI50: 46.1 nM
HIF-1α; COLO205, 100 nM
  reduction of HIF-1α protein levels: 9%
HIF-1α; MDA-MB-231, 100 nM
  reduction of HIF-1α protein levels: 17%
HIF-1α; SK-MEL28, 100 nM
  reduction of HIF-1α protein levels: 28%
HIF-1α; SKOV3, 100 nM
  reduction of HIF-1α protein levels: 25%
NCI-H23
  GI50: 34.5 nM
GADD45GIP1
  Association (ka): No interaction
  Dissociation (kd): No interaction
  KD (kd/ka): No interaction
SK-OV-3
  GI50: 35.6 nM

Source: article PMC10283505, “CVM-1118 (foslinanib), a 2-phenyl-4-quinolone derivative, promotes apoptosis and inhibits vasculogenic mimicry via targeting TRAP1” (Pathology and Oncology Research, 2023)
